We go through 19 molecules from patent US20230026271A1, “Piperazine Compounds for Inhibiting CPS1” (Eisai R&D Management Co., Ltd., priority 2019, published 2023).

Structures are written as SMILES. pIC50: −log10 of the molar value.

This experiment has as its target T1, CPS1 (Homo sapiens, UniProt P31327).
T1 construct: The full length, human CPS1 gene was cloned into pFastBac HTA; His6 (from the pFastBac HTA vector); made in house; host or cells: SF21 insect cells (baculovirus, Bac-to-bac)
T1 sequence (P31327 39-1500): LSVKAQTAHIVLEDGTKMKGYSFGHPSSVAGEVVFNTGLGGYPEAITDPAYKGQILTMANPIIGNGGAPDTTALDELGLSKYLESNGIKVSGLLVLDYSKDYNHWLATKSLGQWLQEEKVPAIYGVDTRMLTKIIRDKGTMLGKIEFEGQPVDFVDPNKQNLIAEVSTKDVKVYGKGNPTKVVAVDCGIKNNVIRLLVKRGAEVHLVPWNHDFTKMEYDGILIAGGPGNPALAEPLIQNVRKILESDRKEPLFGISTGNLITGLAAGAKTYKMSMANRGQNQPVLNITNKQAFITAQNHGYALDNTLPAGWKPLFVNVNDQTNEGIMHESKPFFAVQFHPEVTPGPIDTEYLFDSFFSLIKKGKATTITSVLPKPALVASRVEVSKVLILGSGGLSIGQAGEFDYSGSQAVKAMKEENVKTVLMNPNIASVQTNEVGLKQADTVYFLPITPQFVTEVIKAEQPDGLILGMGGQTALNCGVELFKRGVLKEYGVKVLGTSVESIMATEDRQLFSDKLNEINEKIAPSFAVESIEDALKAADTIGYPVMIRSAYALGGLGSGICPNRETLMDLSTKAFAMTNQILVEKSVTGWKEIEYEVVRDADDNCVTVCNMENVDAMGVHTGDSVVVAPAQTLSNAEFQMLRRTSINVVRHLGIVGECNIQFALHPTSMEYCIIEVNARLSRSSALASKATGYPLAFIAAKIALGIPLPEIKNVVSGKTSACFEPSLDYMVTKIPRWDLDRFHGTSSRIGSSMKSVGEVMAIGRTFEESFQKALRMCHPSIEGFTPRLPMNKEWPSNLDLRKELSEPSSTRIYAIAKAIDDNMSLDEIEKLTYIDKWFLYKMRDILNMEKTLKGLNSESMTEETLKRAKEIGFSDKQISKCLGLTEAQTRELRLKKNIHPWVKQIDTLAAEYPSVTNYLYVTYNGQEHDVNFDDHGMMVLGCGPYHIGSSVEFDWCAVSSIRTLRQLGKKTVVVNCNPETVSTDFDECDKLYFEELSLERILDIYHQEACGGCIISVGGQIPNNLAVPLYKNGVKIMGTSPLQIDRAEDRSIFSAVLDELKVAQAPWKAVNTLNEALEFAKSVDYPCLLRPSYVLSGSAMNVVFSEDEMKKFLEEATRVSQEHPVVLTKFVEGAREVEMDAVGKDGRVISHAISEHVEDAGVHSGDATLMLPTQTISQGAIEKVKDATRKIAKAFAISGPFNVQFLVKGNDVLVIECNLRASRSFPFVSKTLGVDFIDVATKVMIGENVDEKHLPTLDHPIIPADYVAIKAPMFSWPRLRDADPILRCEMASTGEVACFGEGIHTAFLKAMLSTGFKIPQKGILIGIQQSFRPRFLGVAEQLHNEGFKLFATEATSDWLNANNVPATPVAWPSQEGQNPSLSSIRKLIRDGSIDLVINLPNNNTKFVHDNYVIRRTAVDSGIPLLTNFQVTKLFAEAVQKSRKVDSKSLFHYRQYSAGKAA
As to the kind of experiment: ADP-Glo endpoint assay measuring the ATPase activity of CPS1. The class given is biochemical. The settings on record: geometric mean of a minimum of two values; 50 nM CPS1, 10 μM ATP, 0.2 mM NAG, 60 min at room temperature; read-out: ADPGlo IC50. On the procedure:
CPS1 was expressed and purified from SF21 insect cells. The full length, human CPS1 gene was cloned into pFastBac HTA and baculovirus was generated using the Bac-to-bac expression system from Invitrogen. P3 virus was used to infect SF21 insect cells at a density of 1.5E6 cells/mL at an MOI of 2. Cells were harvested by centrifugation after 60 hrs and the cell pellet resuspended in lysis buffer (50 mM glycyl glycine pH 7.4, 20 mM KCl, 1 mM TCEP, 10% glycerol and 20 mM imidazole with Roche protease inhibitor tablet) before being lysed with 40 strokes of a Dounce homogenizer on ice. The insoluble fraction of the lysate was then cleared by centrifugation at 30,000 rpm for 30 min. 40 mL of supernatant was mixed with 2 mL of Ni NTA beads for 45 min at 4° C. in a 50 mL conical tube.
The beads were washed with 40 mL of wash buffer (50 mM glycyl glycine pH 7.4, 500 mM NaCl, 1 mM TCEP, 10% glycerol and 50 mM imidazole) by centrifugation and resuspension of the beads three times. Bound CPS1 protein was eluted in 6 mL of elution buffer (50 mM glycyl glycine pH 7.4, 500 mM NaCl, 1 mM TCEP, 10% glycerol and 250 mM imidazole) three times. Elution fractions were combined and concentrated using an Amicon Ultra centrifugation filter with a 10,000 molecular weight cut off. Imidazole was removed by repeated concentration and resuspension in storage buffer in the filter device (50 mM glycyl glycine pH 7.4, 500 mM NaCl, 1 mM TCEP and 20% glycerol). CPS1 was concentrated to a final concentration of ˜3 mg/mL before being aliquoted, flash frozen in liquid nitrogen and stored at −80° C.
CPS1 activity was measured and compounds profiled in an endpoint assay measuring the ATPase activity of CPS1 using the ADP-Glo kit from Promega. 50 nM CPS1 was incubated alone or with varying amounts of tested compound from DMSO stocks in assay buffer (50 mM HEPES pH 7.0, 12.5 mM KHCO3, 1.5 mM (NH4)2SO3, 5 mM MgCl2, 50 mM KCl, 1 mM TCEP, 0.01% TritonX 100, 0.0025% BSA and 0.2 mM NAG) for 20 min in a 3 μL volume in a 384-well plate (Corning Cat#3820). The final concentration of DMSO was 0.04%. The reaction was initiated by the addition of 10 μM ATP, bringing the final volume to 6 μL. After 60 min at room temperature, the reaction was terminated with 3 μL ADP-Glo reagent and incubated at room temperature for 30 min. 3 μL of kinase detection reagent was then added and luminescent signal measured on an Envision plate reader after 30 min.
In general terms: ADP-Glo turns the ADP formed in a reaction into a luminescent signal.
For `COc1ccc(C(=O)N2[C@H](C)CN(C(=O)c3ccc(N(C)C)cc3F)C[C@H]2C)c(F)c1` [Compound 20, ((2R,6R)-4-(4-(Dimethylamino)-2-fluorobenzoyl)-2,6-dimethylpiperazin-1-yl)(2-fluoro-4-methoxyphenyl)methanone], the pIC50 (usually the negative decadic logarithm of the IC50, by convention in mol/L) was 5.40.
Consider `COc1ccc(C(=O)N2[C@H](C)CN(C(=O)c3ccc4c(c3)CCO4)C[C@H]2C)c(F)c1` [Compound 21, ((2R,6R)-4-(2,3-Dihydrobenzofuran-5-carbonyl)-2,6-dimethylpiperazin-1-yl)(2-fluoro-4-methoxyphenyl)methanone], for which the pIC50 was 5.13.
In the case of `COc1ccc(C(=O)N2C[C@@H](C)N(C(=O)c3ccc(C)cc3F)[C@H](C)C2)c(F)c1` [Compound 22, ((2R,6R)-4-(2-Fluoro-4-methoxybenzoyl)-2,6-dimethylpiperazin-1-yl)(2-fluoro-4-methylphenyl)methanone], the pIC50 was 6.45.
For `COc1ccc(C(=O)N2C[C@@H](C)N(C(=O)c3cc(F)c(OC)cc3F)[C@H](C)C2)c(F)c1` [Compound 23, ((3R,5R)-4-(2,5-Difluoro-4-methoxybenzoyl)-3,5-dimethylpiperazin-1-yl)(2-fluoro-4-methoxyphenyl)methanone], the negative logarithm of the IC50 (pIC50) was 5.92.
Consider `COc1ccc(C(=O)N2C[C@@H](C)N(C(=O)c3ccc(OCc4ccccc4)cc3F)[C@H](C)C2)c(F)c1` [Compound 24, ((3R,5R)-4-(4-(Benzyloxy)-2-fluorobenzoyl)-3,5-dimethylpiperazin-1-yl)(2-fluoro-4-methoxyphenyl)methanone], for which the pIC50 was 6.00.
To `COc1ccc(C(=O)N2C[C@@H](C)N(C(=O)c3c(F)cc(SC)cc3F)[C@H](C)C2)c(F)c1` [Compound 25, ((3R,5R)-4-(2,6-difluoro-4-(methylthio)benzoyl)-3,5-dimethylpiperazin-1-yl)(2-fluoro-4-methoxyphenyl)methanone] belongs 6.59; to `COc1ccc(C(=O)N2C[C@@H](C)N(C(=O)c3ccc(OC)cc3F)[C@H](C)C2)c(F)c1` [Compound 26, ((2R,6R)-2,6-Dimethylpiperazine-1,4-diyl)bis((2-fluoro-4-methoxyphenyl)methanone)], 6.44.
To `CCOc1ccc(C(=O)N2[C@H](C)CN(C(=O)c3ccc(OC)cc3F)C[C@H]2C)c(F)c1` [Compound 27, ((3R,5R)-4-(4-Ethoxy-2-fluorobenzoyl)-3,5-dimethylpiperazin-1-yl)(2-fluoro-4-methoxyphenyl)methanone] belongs 6.38; to `COc1ccc(C(=O)N2C[C@@H](C)N(C(=O)c3c(C)cc(OC)cc3F)[C@H](C)C2)c(F)c1` [Compound 28, ((3R,5R)-4-(2-Fluoro-4-methoxy-6-methylbenzoyl)-3,5-dimethylpiperazin-1-yl)(2-fluoro-4-methoxyphenyl)methanone], 6.04; to `COc1ccc(C(=O)N2C[C@@H](C)N(C(=O)c3ccc(OC)c(F)c3)[C@H](C)C2)c(F)c1` [Compound 29, ((2R,6R)-4-(2-Fluoro-4-methoxybenzoyl)-2,6-dimethylpiperazin-1-yl)(3-fluoro-4-methoxyphenyl)methanone], 5.64.
To `COc1ccc(C(=O)N2C[C@@H](C)N(C(=O)c3ccc(OC(C)C)cc3F)[C@H](C)C2)c(F)c1` [Compound 30, ((3R,5R)-4-(2-fluoro-4-isopropoxybenzoyl)-3,5-dimethylpiperazin-1-yl)(2-fluoro-4-methoxyphenyl)methanone] belongs 5.83; to `COc1ccc(C(=O)N2C[C@@H](C)N(C(=O)c3ccc(OC(F)(F)F)cc3F)[C@H](C)C2)c(F)c1` [Compound 31, ((3R,5R)-4-(2-fluoro-4-(trifluoromethoxy)benzoyl)-3,5-dimethylpiperazin-1-yl)(2-fluoro-4-methoxyphenyl)methanone], 5.93; to `COc1ccc(C(=O)N2C[C@@H](C)N(C(=O)c3ccc(F)cc3F)[C@H](C)C2)c(F)c1` [Compound 32, ((3R,5R)-4-(2,4-difluorobenzoyl)-3,5-dimethylpiperazin-1-yl)(2-fluoro-4-methoxyphenyl)methanone], 5.84.
In the case of `COc1ccc(C(=O)N2C[C@@H](C)N(C(=O)c3ccc(OC(F)F)cc3F)[C@H](C)C2)c(F)c1` [Compound 33, ((3R,5R)-4-(4-(difluoromethoxy)-2-fluorobenzoyl)-3,5-dimethylpiperazin-1-yl)(2-fluoro-4-methoxyphenyl)methanone], the negative logarithm of the IC50 (pIC50) is 5.59.
For `COc1ccc(C(=O)N2C[C@@H](C)N(C(=O)c3ccc(OC)c(F)c3F)[C@H](C)C2)c(F)c1` [Compound 34, ((3R,5R)-4-(2,3-Difluoro-4-methoxybenzoyl)-3,5-dimethylpiperazin-1-yl)(2-fluoro-4-methoxyphenyl)methanone], the pIC50 was 6.41.
For `COc1ccc(C(=O)N2[C@H](C)CN(C(=O)c3ccc4c(c3)NC(=O)CO4)C[C@H]2C)c(F)c1` [Compound 35, 6-((3R,5R)-4-(2-Fluoro-4-methoxybenzoyl)-3,5-dimethylpiperazine-1-carbonyl)-2H-benzo[b][1,4]oxazin-3(4H)-one], the negative-log IC50 (pIC50) is 5.10.
Take `COc1ccc(C(=O)N2[C@H](C)CN(C(=O)c3c[nH]c4c(Cl)cccc34)C[C@H]2C)c(F)c1` [Compound 36, (7-Chloro-1H-indol-3-yl)((3R,5R)-4-(2-fluoro-4-methoxybenzoyl)-3,5-dimethylpiperazin-1-yl)methanone]: the pIC50 is 5.94.
Regarding `COc1ccc(C(=O)N2[C@H](C)CN(C(=O)c3cnc4cc[nH]c4c3)C[C@H]2C)c(F)c1` [Compound 37, ((2R,6R)-2,6-Dimethyl-4-(1H-pyrrolo[3,2-b]pyridine-6-carbonyl)piperazin-1-yl)(2-fluoro-4-methoxyphenyl)methanone], the pIC50 was 5.60.
As for `COc1ccc(C(=O)N2[C@H](C)CN(C(=O)c3ccc4nc[nH]c4c3)C[C@H]2C)c(F)c1` [Compound 38, ((2R,6R)-4-(1H-Benzo[d]imidazole-5-carbonyl)-2,6-dimethylpiperazin-1-yl)(2-fluoro-4-methoxyphenyl)methanone], the figure is 5.31.
